Measured values published in patent US20080214675A1, “Hydroxybenzoic Acid Amides and the Use Thereof For Masking Bitter Taste” (SYMRISE GMBH & CO. KG, priority 2004, published 2008).
Where a name gives a salt, the structure may show the parent alone.

Tests used:
[1] = examined in the context of various sweeteners; cited from earlier work
[2] = Strengthening the sweetness of a sugar solution (expert panel rating); type: in vivo; conditions: 5% sucrose; for Sweetness impression (1-10) with: error = standard deviation
Experimental: To quantify the strengthening of the sweetness impression, the sweetness of a 5% sucrose solution and a sample containing […] and an amount of the exemplary compound was determined by a group of experts (rating 0 [not sweet] to 10 [extremely sweet]). The evaluation was made as a calculation of the strengthening (in %) of the sweetness impression from the average values for the ratings of the sucrose solution and the solutions containing sucrose and the exemplary compound. Vanillin was used as a comparison as a typical aromatic substance described as sweet.

[3] = Bitterness reduction in a bitter principle solution (expert panel rating); type: in vivo; conditions: for % reduction in bitterness impression / Testers positive (number of testers who could detect a masking effect) / Bitterness impression (1-10) with: 500 ppm caffeine; for Bitterness impression (1-10) with: error = 95% confidence interval
Experimental: To quantify the reduction in the bitterness impression, the bitterness of a 500 ppm caffeine or salicin solution and a sample containing 500 ppm of caffeine or salicin and a varying amount of the exemplary compound was determined by a group of experts (rating 0 [not bitter] to 10 [extremely bitter]). The evaluation was made as a calculation of the reduction (in %) of the bitterness impression from the average values for the ratings of the caffeine or salicin solution and the solutions containing caffeine or salicin and the exemplary compound. 2,4-Dihydroxybenzoic acid (2,4-DHB) from U.S. Pat. No. 5,643,941 was used as a comparison.

[4] = Strengthening the sweetness of a yogurt (expert panel rating); type: in vivo
Experimental: To quantify the strengthening of the sweetness impression, the sweetness of a low-fat (0.1%) commercial yogurt (Optiwell) containing 5% sucrose and of a sample containing […] and an amount of the exemplary compound was determined by a group of experts (rating 0 [not sweet] to 10 [extremely sweet]). The evaluation was made as a calculation of the strengthening (in %) of the sweetness impression from the average values for the ratings of the yogurt containing sucrose and the yogurt containing sucrose and the exemplary compound.

[5] = 200 ppm substance, 5% sucrose, low-fat yogurt

SMILES | % reduction in bitterness impression ([3]; 100 ppm substance) | Testers positive (number of testers who could detect a masking effect) ([3]; 100 ppm substance) | Bitterness impression (1-10) with ([3]; 100 ppm substance) | other results
COc1ccc(CNC(=O)c2c(O)cc(O)cc2O)cc1O [2,4,6-trihydroxybenzoic acid-N-(3-hydroxy-4-methoxybenzyl)amide] | – | – | – | taste [1]: tasteless
COc1cc(CNC(=O)c2ccc(O)cc2O)ccc1O [Example 1, 2,4-dihydroxybenzoic acid-N-(4-hydroxy-3-methoxybenzyl)amide] | – | – | – | % strengthening of sweetness impression ([2]; 100 ppm substance): 7.2%; Testers positive (number of testers who could detect a strengthening effect) ([2]; 100 ppm substance): 7; Sweetness impression (1-10) with ([2]; 100 ppm substance): 5.6 ± 1.7; % reduction in bitterness impression ([3]; 20 ppm substance): 29%, p < 0.05; Testers positive (number of testers who could detect a masking effect) ([3]; 20 ppm substance): 11; Bitterness impression (1-10) with ([3]; 20 ppm substance): 4.5 ± 0.6; % strengthening of sweetness impression [4, 5]: 26.5%; Testers positive (number of testers who could detect a strengthening effect) [4, 5]: 12; Sweetness impression (1-10) with ([4]; 200 ppm substance, 5% sucrose, low-fat yogurt, error = standard deviation): 5.4 ± 1.5; descriptors of the yogurt ([4]; yogurt containing the compound): more fullness, less acidic, soft, creamy; preference of the yogurt ([4]; yogurt containing the compound vs yogurt with sucrose only): preferred
COc1cc(CNC(=O)c2c(O)cc(O)cc2O)ccc1O [Example 2, 2,4,6-Trihydroxybenzoic acid-N-(4-hydroxy-3-methoxybenzyl)amide] | 24%, p < 0.05 | 8 | 5.1 ± 0.9 | –
O=C(O)c1ccc(O)cc1O [2,4-DHB, 2,4-Dihydroxybenzoic acid, reference compound] | 3% | 9 | 5.0 ± 1.0 | –
COc1cc(CCNC(=O)c2ccc(O)cc2O)ccc1O [Example 6, 2,4-Dihydroxybenzoic acid-N-2-(4-hydroxy-3-methoxyphenyl)ethylamide] | 20%, p < 0.05 | 9 | 3.7 ± 0.8 | –
COc1cc(C=O)ccc1O [vanillin, Vanillin, reference compound] | – | – | – | % strengthening of sweetness impression ([2]; 600 ppb substance): −3%; Testers positive (number of testers who could detect a strengthening effect) ([2]; 600 ppb substance): 5; Sweetness impression (1-10) with ([2]; 600 ppb substance): 6.0 ± 1.1
COc1ccc(CNC(=O)c2ccc(O)cc2O)cc1O [Example 9, 2,4-Dihydroxybenzoic acid-N-3-hydroxy-4-methoxybenzylamide, reference compound] | 11% | – | 3.9 ± 0.8 | change in the bitterness impression (bitterness-masking effect) ([3]; application example 1): No statistically significant change
COc1cc(CNC(=O)c2ccccc2O)ccc1O [Example 3, 2-Hydroxybenzoic acid-N-(4-hydroxy-3-methoxybenzyl)amide] | 23%, p < 0.05 | 12 | 4.1 ± 0.9 | –
COc1cc(CNC(=O)c2ccc(O)cc2O)ccc1O [Example 5, 2,4-Dihydroxybenzoic acid-N-4-hydroxy-3-methoxybenzylamide monosodium salt] | 32%, p < 0.05 | 13 | 4.1 ± 1.0 | –
COc1cc(CNC(=O)c2ccc(O)cc2)ccc1O [Example 4, 4-Hydroxybenzoic acid-N-(4-hydroxy-3-methoxybenzyl)amide] | 26%, p < 0.05 | 9 | 4.5 ± 0.5 | –
